23 compounds from patent US9018212B2, “Pyridazine carboxamides as CCR2 receptor antagonists” (Boehringer Ingelheim International GmbH, priority 2010, dated 2015) can be followed below.

The target in this test is T1, CCR2 (Homo sapiens, UniProt P41597).
T1 construct: Membranes were prepared from THP-1 cells; endogenous in cells; host or cells: THP-1 (human acute monocytic leukaemia cells), membrane preparation
T1 sequence (P41597 1-360 isoform P41597-2): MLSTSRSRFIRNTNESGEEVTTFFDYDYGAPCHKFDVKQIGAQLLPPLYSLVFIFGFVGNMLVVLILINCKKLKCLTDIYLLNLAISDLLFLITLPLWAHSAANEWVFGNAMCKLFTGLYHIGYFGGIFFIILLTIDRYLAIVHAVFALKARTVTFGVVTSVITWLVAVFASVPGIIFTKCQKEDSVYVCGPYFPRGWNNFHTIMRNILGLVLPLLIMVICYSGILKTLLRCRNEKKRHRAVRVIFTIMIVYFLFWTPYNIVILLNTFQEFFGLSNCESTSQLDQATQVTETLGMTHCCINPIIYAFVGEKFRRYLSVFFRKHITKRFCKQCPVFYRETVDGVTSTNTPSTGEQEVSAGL
Put plainly: CCR2 receptor membrane binding assay ([125I]MCP-1, THP-1 membranes, SPA beads). The settings on record: THP-1 cell membranes; [125I]MCP-1 displacement; bound radioactivity after 8 h; read-out: hKi. The procedure: The above exemplary substances have been tested for binding to CCR2 using a binding assay as outlined herein below:
THP-1 cells (human acute monocytic leukaemia cells) were cultured under standardized conditions at 37° C. and 5% CO2 in a humidified incubator. THP-1 cells were cultivated in RPMI 1640 medium (Gibco 21875) containing 1% MEM-NEAA (Gibso 11140) 2 mM L-glutamine, 1.5 g/L sodium bicarbonate, 4.5 g/L glucose, 10 mM HEPES and 1.0 mM sodium pyruvate, 90%; 10% fetal calf serum (FCS Gibco 10500-064).
Membranes were prepared from THP-1 cells. THP-1 cells were centrifuged at 300×g at 4° C. for 10 min. The cell pellet was resuspended in Phosphate Buffer Saline (PBS, including 10 μM Pefabloc and a protease inhibitor mix ‘complete’, Boehringer Mannheim (1 tablet/50 ml)), to a concentration of […]. The membrane preparation was performed by disrupting the cells by nitrogen […] (at 50 bar, for 1 h) in a “Nitrogen Bombe” (Parr Instrument). Cell debris was removed by centrifugation (800×g at 4° C., 1 min). The supernatant was centrifuged at 80000×g, 4° C. for 30 min to sediment the cell membranes. Usually 50 mg of protein (Bradford assay) were yielded from 1×10E9 cells. The membranes were resuspended in 25 mM HEPES, 25 mM MgCl2, 1 mM CaCl2, 10% Glycerine for storage in aliquots at −80° C. in 25 mM HEPES, 25 mM MgCl2, 1 mM CaCl2, 10% Glycerine and stored at −80° C.
Perkin Elmer NEX 332 Jod 125 MCP-1, Stock: 2200 Ci/mmol solved in 2000 μl assay buffer, stored at −20° C. THP-1 membrane were adjusted with 25 mM HEPES, pH 7.2; 5 mM MgCl2; 0.5 mM CaCl2; 0.2% BSA assay buffer to a concentration of 2.5 μg/15 μl. Amersham Biosciences PVT-WGA Beads (RPNQ0001) were adjusted with assay buffer to a concentration of 0.24 mg/30 μl. For preparation of the membrane-bead-suspension membranes and beads were incubated for 30 min at RT under rotation (60 rpm) with a ratio of 1:2. Test compounds dissolved in 100% DMSO to a concentration of 10 mM and are further diluted with 100% DMSO to 1 mM. All additional compound dilutions were obtained with assay buffer, final 1% DMSO. Compounds, membrane-bead-suspension and [125I]MCP-1 (ca. 25000 cpm/10 μl) were incubated. Bound radioactivity was determined by scintillation counter after 8 h. Determination of affinity of test compounds (dissociation constant hKi) is calculated by iterative fitting of experimental data using the “easy sys” program, which is based on law of mass action (Schittkowski K. (1994), Numerische Mathematik, Vol. 68, 129-142).
As for `COc1nnc(C(=O)N2CCC(N3CCC(N(C)S(C)(=O)=O)CC3)CC2)c(C)c1NCc1ccc(C(C)(C)C)cc1` [Example 1], the Ki is 60 nM.
Turning to `COc1nnc(C(=O)N2CCC(NC3CCOCC3OC)CC2)c(C)c1NCc1ccc(C(C)(C)C)cc1` (centres unmarked) [Example 2], the Ki is 40 nM.
Take `COc1nnc(C(=O)N2CCC(N[C@H]3CCOC[C@H]3OC)CC2)c(C)c1NC[C@H]1CCC[C@@H](c2ccccc2)C1` [Example 3]: the Ki is 1 nM.
Under `COc1nnc(C(=O)N2CCC(N[C@H]3CCOC[C@H]3OC)CC2)c(C)c1N1CCc2ccc(C(F)(F)F)cc2C1` [Example 4] stands 10 nM; under `COc1nnc(C(=O)N2CCC(N[C@H]3CCOC[C@H]3OC)CC2)c(C)c1NC[C@H]1CCC[C@@H](c2ccc(OC(F)(F)F)cc2)O1` [Example 5], 3 nM; under `COc1nnc(C(=O)N2CCC(N[C@@H]3CCOC[C@@H]3OC)CC2)c(C)c1NC[C@H]1CCC[C@@H](c2ccc(C)cc2)O1` [Example 6], 4 nM.
As for `COc1nnc(C(=O)N2CCC(N[C@H]3CCOC[C@H]3OC)CC2)c(C)c1NC[C@H]1CCC[C@@H](c2ccc(C(F)(F)F)cc2)O1` [Example 7], the figure is 1 nM; as for `COc1nnc(C(=O)N2CCC(N[C@@H]3CCOC[C@@H]3OC)CC2)c(C)c1NC[C@H]1CCC[C@@H](c2ccc(C(F)(F)F)cc2)O1` [Example 8], 2 nM.
Under `COC1COCCC1NC1CCN(C(=O)c2nncc(NCc3ccc(C(C)(C)C)cc3)c2C)CC1` (centres unmarked) [Example 9] stands 27 nM; under `CO[C@@H]1COCC[C@@H]1NC1CCN(C(=O)c2nncc(NC[C@H]3CCC[C@@H](c4ccccc4)C3)c2C)CC1` [Example 10], 3 nM.
On to `CO[C@@H]1COCC[C@@H]1NC1CCN(C(=O)c2nncc(N3CCc4ccc(C(F)(F)F)cc4C3)c2C)CC1` [Example 11], for which the Ki turned out to be 16 nM.
Under `CO[C@@H]1COCC[C@@H]1NC1CCN(C(=O)c2nncc(NC[C@H]3CCC[C@@H](c4ccc(OC(F)(F)F)cc4)O3)c2C)CC1` [Example 12] stands 0.7 nM.
As to `Cc1ccc([C@@H]2CCC[C@H](CNc3cnnc(C(=O)N4CCC(NC5CCOCC5F)CC4)c3C)O2)cc1` (some centres unmarked) [Example 13], the Ki was found to be 35 nM.
Take `Cc1c(NC[C@H]2CCC[C@@H](c3ccc(OC(F)(F)F)cc3)O2)cnnc1C(=O)N1CCC(NC2CCOCC2F)CC1` (some centres unmarked) [Example 14]: the Ki amounted to 5 nM.
For the compound `CO[C@H]1COCC[C@H]1NC1CCN(C(=O)c2nncc(NC[C@H]3CCC[C@@H](c4ccc(C(F)(F)F)cc4)O3)c2C)CC1` [Example 15], the Ki is 6 nM.
Under `CO[C@@H]1COCC[C@@H]1NC1CCN(C(=O)c2nncc(NC[C@H]3CCC[C@@H](c4ccc(C(F)(F)F)cc4)O3)c2C)CC1` [Example 16] stands 3 nM.
As for `CO[C@H]1COCC[C@H]1NC1CCN(C(=O)c2nncc(N3CCc4ccc(C(F)(F)F)cc4C3)c2C)CC1` [Example 17], the figure is 73 nM.
As for `Cc1c(NC[C@H]2CCC[C@@H](c3ccccc3)C2)cnnc1C(=O)N1CCC(NC2CCOCC2F)CC1` (some centres unmarked) [Example 18], the Ki amounted to 7 nM.
`Cc1c(NC[C@H]2CCC[C@@H](c3ccc(C(F)(F)F)cc3)O2)cnnc1C(=O)N1CCC(NC2CCOCC2F)CC1` (some centres unmarked) [Example 19]: the Ki turned out to be 9 nM.
`Cc1c(N2CCc3ccc(C(F)(F)F)cc3C2)cnnc1C(=O)N1CCC(NC2CCOCC2F)CC1` (centres unmarked) [Example 20]: the Ki was determined as 54 nM.
In the case of `Cc1c(Nc2ccc(Cl)c(Cl)c2)cnnc1C(=O)N1CCC(NC2CCOCC2F)CC1` (centres unmarked) [Example 21], the Ki was determined as 41 nM.
As for `CO[C@@H]1COCC[C@@H]1NC1CCN(C(=O)c2nncc(Nc3ccc(Cl)c(Cl)c3)c2C)CC1` [Example 22], the figure is 4 nM; as for `COC1COCCC1NC1CCN(C(=O)c2nnc(C)c(NCc3ccc(C(C)(C)C)cc3)c2C)CC1` (centres unmarked) [Example 23], 128 nM.
